Laboratory results reported in patent US20180036234A1, “TREATMENT OF BONE FRACTURES AND DEFECTS” (Entera Bio Ltd., priority 2015, published 2018).
“And” between values parts separate entries of the source, which are not always exact repeats. Equal values may be shown once.

Key:
[1] = Dissolution test of tablets in simulated gastric buffer, released SNAC by HPLC; type: physicochemical; details: tablet with 100 mg sodium bicarbonate vs tablet without; simulated gastric buffer pH 2.0, 37° C.; FIG. 15
Protocol: The tablets were in a form of a homogeneous mixture.
Each tablet formulation was subjected to a dissolution test in 100 ml of simulated gastric buffer (without pepsin), pH 2.0, at 37° C., according to USP 23 Apparatus 2 (paddle) with 50 rotations per minute. The amount of released SNAC in each sample was determined chromatographically, using an HPLC apparatus with Cosmosil™ 5 C18-MS-II (4.6 ID×250 mm) column. Mobile phase consisted of 50% acetonitrile and 50% phosphoric acid solution (0.1%). Flow rate was 1 ml/minute and injection volume was 25 μl. Amount of released SNAC was calculated as a percentage of the amount of SNAC in the formulation.

[2] = Phase I clinical study of oral teriparatide formulations, plasma PTH(1-34) versus subcutaneous injection; type: in vivo, human
Protocol: A Phase I clinical study of exemplary oral formulations comprising teriparatide (parathyroid hormone (1-34)) was conducted at the Hadassah Clinical Research Center. 42 healthy volunteers were included throughout the study.
The formulation was composed of teriparatide (200, 400, 680, 1400 or 1800 μg), SNAC (sodium 8-N-(2-hydroxybenzoyl) aminocaprylate), soybean trypsin inhibitor and magnesium stearate.
Tablets were administered in the morning after an 8-hour overnight fast and immediately followed by 150 ml of water. At each visit a standard meal was provided 3 hours after drug administration.
To determine parathyroid hormone concentrations, blood samples (4 ml each) were drawn via an indwelling catheter from the forearm vein at predetermined time points. The cannula was flushed with 1.5 ml normal saline after each sampling. In addition, to avoid sample dilution, 1 ml of blood was drawn and discarded before the next sample. The blood samples were taken at following times: baseline (predose), 15 minutes, 30 minutes, 45 minutes, 60 minutes, 75 minutes, 90 minutes, 105 minutes, 2 hours, 3 hours, 4 hours and 5 hours post-administration. Each blood sample was collected into a single tube containing EDTA (ethylenediaminetetraacetic acid) and placed on ice. Within 15 minutes of blood collection, samples were centrifuged for 10 minutes at 4° C. (2500 rotations per minute) and the plasma was separated and divided into two or three aliquots. Each aliquot was transferred into appropriately labeled polypropylene tubes and stored at approximately −20° C. pending analysis. PTH(1-34) levels were measured using an IDS-iSYS automated assay for the measurement of intact PTH(1-34) in human plasma or serum.
Oral administration of teriparatide was performed as described hereinabove at doses of 200, 400, 680, 1400 or 1800 μg. The Cmax of PTH(1-34) for each orally administered dose was compared with the Cmax of PTH(1-34) for subcutaneous injection of 20 μg teriparatide.

[3] = Pharmacokinetic study of oral teriparatide tablet (0.75 mg) in healthy volunteers; type: in vivo, human
Protocol: An open label comparative pharmacokinetic study was performed in healthy volunteers over the course of 3 months. Each volunteer received—in each of two visits—the same oral tablet containing 0.75 mg of teriparatide, a recombinant form of parathyroid hormone (1-34).
(§1) The formulation was composed of teriparatide (0.75 mg), SNAC (sodium 8-N-(2-hydroxybenzoyl) aminocaprylate), soybean trypsin inhibitor (SBTI) and a small amount of magnesium stearate.
Tablets were administered in the morning after an 8-hour overnight fast and immediately followed by 150 ml of water. At each visit a standard meal was provided 3 hours after drug administration. […] There was a two weeks period between the visits.
To determine parathyroid hormone(1-34) (PTH(1-34)) concentrations, blood samples (4 ml each) were drawn via an indwelling catheter from the forearm vein at predetermined time points during each visit. The cannula was flushed with 1.5 ml normal saline after each sampling. In addition, to avoid sample dilution, 1 ml of blood was drawn and discarded before the next sample. The blood samples were taken at following times: baseline (predose), 10 minutes, 15 minutes, 20 minutes, 30 minutes, 45 minutes, 60 minutes, 75 minutes, 90 minutes, 105 minutes, 2 hours, 3 hours, 4 hours and 5 hours post-administration. Each blood sample was collected into a single tube containing EDTA (ethylenediaminetetraacetic acid) and placed on ice. Within 15 minutes of blood collection, samples were centrifuged for 10 minutes at 4° C. (2500 rotations per minute) and the plasma was separated and divided into two or three aliquots. Each aliquot was transferred into appropriately labeled polypropylene tubes and stored at approximately −20° C. pending analysis. PTH(1-34) levels were measured using an IDS-iSYS automated assay for the measurement of intact PTH(1-34) in human plasma or serum.

[4] = Pharmacokinetic study of oral teriparatide tablet co-administered with water or sodium bicarbonate solution; type: in vivo, human; details: oral tablet 0.75 mg teriparatide with 150 ml of 3 mg/ml sodium bicarbonate solution, in comparison with 150 ml water; FIG. 16
Protocol: An open label comparative pharmacokinetic study was performed on ten healthy volunteers. On different visits, each volunteer received the same oral tablet containing 0.75 mg of teriparatide, a recombinant form of parathyroid hormone (1-34) (PTH(1-34)). In the first visit, the tablet was administered with 150 ml water, whereas in the second visit the tablet was administered with 150 ml of 3 mg/ml sodium bicarbonate aqueous solution.
as §1
Tablets were administered in the morning after an 8-hour overnight fast. At each visit a standard meal was provided 3 hours after drug administration. […] There was a two week period between the two visits.
To determine PTH(1-34) concentrations, blood samples were drawn and PTH(1-34) levels were measured using an IDS-iSYS automated assay, using procedures described in Example 1 hereinabove. Relative absorption was determined based on the AUC (area under curve) parameter.

cAMP = assay: Plasma cAMP levels after oral or subcutaneous teriparatide; type: in vivo, human; details: FIG. 4
Protocol: In addition, plasma levels of cAMP, a known marker of PTH activity, were determined in order to confirm biological activity of administered PTH. cAMP plasma levels were measured following oral administration of 680 μg teriparatide or subcutaneous injection of 20 μg teriparatide, as described hereinabove.

[5] = oral tablet 0.75 mg teriparatide with SNAC, SBTI, magnesium stearate, fasted healthy volunteers, plasma PTH(1-34), per subject (A, B, C)
[6] = oral tablet 0.75 mg teriparatide with SNAC, SBTI, magnesium stearate, second visit two weeks later, per subject (A, B, C)

## O=C(O)CCCCCCCNC(=O)c1ccccc1O [SNAC, sodium 8-N-(2-hydroxybenzoyl)aminocaprylate]
[1]
  dissolution of SNAC in tablets: considerably enhanced
  soluble fraction of SNAC: preserved

## CC[C@H](C)[C@H](NC(=O)[C@H](CCC(=O)O)NC(=O)[C@H](CO)NC(=O)[C@@H](NC(=O)[C@@H](N)CO)C(C)C)C(=O)N[C@@H](CCC(N)=O)C(=O)N[C@@H](CC(C)C)C(=O)N[C@@H](CCSC)C(=O)N[C@@H](Cc1cnc[nH]1)C(=O)N[C@@H](CC(N)=O)C(=O)N[C@@H](CC(C)C)C(=O)NCC(=O)N[C@@H](CCCCN)C(=O)N[C@@H](Cc1cnc[nH]1)C(=O)N[C@@H](CC(C)C)C(=O)N[C@@H](CC(N)=O)C(=O)N[C@@H](CO)C(=O)N[C@@H](CCSC)C(=O)N[C@@H](CCC(=O)O)C(=O)N[C@@H](CCCN=C(N)N)C(=O)N[C@H](C(=O)N[C@@H](CCC(=O)O)C(=O)N[C@@H](Cc1c[nH]c2ccccc12)C(=O)N[C@@H](CC(C)C)C(=O)N[C@@H](CCCN=C(N)N)C(=O)N[C@@H](CCCCN)C(=O)N[C@@H](CCCCN)C(=O)N[C@@H](CC(C)C)C(=O)N[C@@H](CCC(N)=O)C(=O)N[C@@H](CC(=O)O)C(=O)N[C@H](C(=O)N[C@@H](Cc1cnc[nH]1)C(=O)N[C@@H](CC(N)=O)C(=O)N[C@@H](Cc1ccccc1)C(=O)O)C(C)C)C(C)C [teriparatide]
[2]; oral 1800 μg vs subcutaneous 20 μg teriparatide, FIG. 3
  decline of PTH levels following oral administration compared with subcutaneous administration: declined considerably more rapidly
[2]; oral tablets 200, 400, 680, 1400 or 1800 μg teriparatide with SNAC and SBTI, FIG. 2
  Cmax of PTH(1-34) following oral administration, relation to dose: proportional to the dose
[2]; oral tablets with SNAC and SBTI, FIG. 2
  oral dose providing a Cmax equivalent to that of subcutaneous administration of 20 μg teriparatide: roughly 750 μg
[3]; oral tablet 0.75 mg teriparatide with SNAC and SBTI, plasma
  time for plasma levels to return to baseline levels after tablet administration: ≤ 60 min
[3]; [5]
  Cmax after 1st administration: 35 picogram/ml
  Tmax after 1st administration: 10 min and 15 min
[3]; [6]
  Cmax after 2nd administration: 36 picogram/ml
  Tmax after 2nd administration: 20 min
[4]
  increase in absorption of PTH(1-34) (based on AUC): about 35%
cAMP; oral administration of 680 μg teriparatide (compared with subcutaneous 20 μg)
  plasma cAMP levels: increased plasma cAMP levels to a similar degree
cAMP; subcutaneous administration of 20 μg teriparatide (compared with oral 680 μg)
  plasma cAMP levels: increased plasma cAMP levels to a similar degree
